From patent publication US20200315171A1, “PSYLLID PHEROMONE COMPOSITIONS” (The Regents of the University of California, priority 2017, published 2020)
“Also recorded” adds a separate entry of the source.

Assays:
[1] = test system: 7-day-old virgin D. citri males; test: Y-olfactometer behavioral assay, virgin males as responders; assay type: in vivo, Diaphorina citri
Protocol: (§1) Indoor behavioral assays. All behavioral assays were conducted in a climate-controlled room (see above). A glass tube in a Y-shape (central tube 15 cm in length and 3 cm in diameter split into two tubes in a 120° angle with the same dimensions used in the central tube) was placed vertically with the decision arms pointing towards the ceiling (light sources). All connections were made with 0.635-diameter polytetrafluoroethylene (PTFE) tubes (Sigma-Aldrich, Bellefonte, Pa., USA). Clean air was provided by an oil-free air compressor (Schulz MSV6, Schulz, Joinville, SC, Brazil) and humidified into milliQ water before the line was split into two separate lines, each one with an air flowmeter with a range from 0.1 to 1.0 L/min (Brooks Instrument, Hatfield, Pa. USA) to allow balanced flow of […]. […] Insects that crossed the central tube line located 5 cm from the bifurcation within the observation time of 5 min were recorded as responders. […]
(§2) Statistical analyses. […] Field tests with multiple comparison (different doses) were analyzed by ANOVA. Capture data were first transformed into log (x+1) and them means were analyzed by Dunnett's test as well as Tukey's test (P<0.05) by comparing the mean of each column with the mean of the control or with the mean of every other group, respectively.

[2] = test system: D. citri adults; test: Field tests with baited yellow sticky traps in a citrus grove; assay type: in vivo, Diaphorina citri; settings: for Males caught: higher-dose field experiment, n=48 per trap
Protocol: Field Experiment 1: Evaluation of lignoceryl acetate, lygnocerol, formic acid, acetic acid, and propionic acid. These experiments were performed in an organic grove of Valencia sweet orange [Citrus sinensis (L.) Osbeck] grafted on ‘Rangpur’ lime (Citrus limonia Osbeck) with natural infestation of D. citri. For this purpose, yellow stick cards (30 cm in length×10 cm in width) with a 2 cm in diameter central hole were used to assess the attractivity of the test compounds to D. citri adults. Compounds were assessed at doses ranging from 0.01 μg to 100 μg. Hexane was used as a control. Tested compounds were incorporated into slow-release devices made of ES fiber (Ethylene-Propylene Side by Side, Chiso Co. Ltd, Japan). The experiments were designed in Latin square using 16 traps spaced 25 m from each other (4 traps per treatment). They were repeated three times over time and the number of captured ACP adults was recorded each 7 days for 49 days.
(§3) Statistical analyses. […] Each pair of a test and a control in indoor behavioral measurements using an Y-olfactometer or 4-way olfactometer, as well in field tests comparing only a single treatment and a control, was compared by using two-tailed, Wilcoxon matched-pairs signed rank test.

[3] = test system: D. citri adults; test: Field tests with transparent traps baited with aged lignoceryl acetate lures; assay type: in vivo, Diaphorina citri
Protocol: Field Experiment 2: Evaluation of aged lignoceryl acetate lures. Lures were prepared and kept in greenhouses for 28 days prior to being fixed in yellow stick cards in the field. Thus, aged lures were tested in the field starting on day 28 until 70 days after preparation of the lures. The area, experimental design, number of traps, and data collection were the same as described above.
Field Experiment 3: Evaluation of lignoceryl acetate lures using transparent traps. To avoid interference from the yellow visual cues from the stick cards, these experiments were performed with transparent acrylic traps (30 cm in length×10 cm in width) and covered with an adhesive glue film (Biostop Cola, Biocontrole, São Paulo, Brazil). The experimental design, number of traps, and data collection were the same as described above.
as §3

[4] = SPME analysis of volatiles from lures matured under field conditions; assay type: physicochemical; settings: lures matured for 5 weeks under field conditions vs new lures
Protocol: Injections were operated in splitless mode with an injector temperature of 250° C. The GC ovens were programmed from 40° C. for 1 min, increased to 300° C. at 10° C./min (held for 50 min). MS transfer line, manifold, and trap were set at 300° C., 50° C., and 217° C., respectively. Quantitative analyses were done on a Shimadzu GC-2010 gas chromatograph equipped with a flame ionization detector (Shimadzu Corp., Kyoto, Japan) and fitted with an HP5-MS capillary column (30 m×0.25 mm i.d.×[…]; Agilent Scientific, Santa Clara, Calif., USA). SPME analyses were done with a 50/30 divinylbenzene (DVB)/carboxen (CAR)/polydimethylsiloxane (PDMS) (Supelco, catalogue number 57328-U). Volatile compounds were collected from the headspace of the samples placed in a closed glass container with a rubber septum on the top. Both laboratories used the same oven temperature program, i.e., starting at 35° C. for 5 min, raising to 70° C. at a rate of 2.5° C./min, then increasing to 150° C. at 5° C./min, and subsequently raising to the final temperature of 250° C. at 20° C./min.

[5] = test system: ACP male antennae; test: Electroantennogram (EAG) responses of ACP male antennae to C1-C6 acids; set-up: species or system Diaphorina citri
Protocol: (§4) Electrophysiology. Antennas were mounted, according to a published protocol^26, under a stereoscopic microscope (SZT, BEL Engineering, MB, Italy). Antennae were connected with glass microcapillaries pulled with a PC-10 puller (Narishige, Kanto, Japan). The glass capillaries housed 0.39 mm gold wires (Sigmund Cohn Corp, Mt. Vernon, N.Y.) and were filled with a saline solution (3.7 g NaCl, 0.175 g KCl, 0.17 g CaCl2 in 500 mL of distilled water). Electrodes were connected to a Universal Probe, gain 10× (Syntech, Buchenbach, Germany) and connected to a 2-Chanel IDAC Acquisition Controller (Syntech). The signal was processed with Syntech software (GcEad version 4.6). Two Pasteur pipettes were used one for a flow balance and the other as a stimulus. The stimulus was loaded on a filter paper strip (40×4-mm), which was inserted in the stimulus pipette after evaporation for 1 min. Each cartridge was used only once. The antennal preparation was set at the end of an effluent flow tube, which had two lateral holes (13 cm from the antennal preparations) to accommodate the tips of the Pasteur pipettes (stimulus and flow balance). Humidified continuous flow (0.1 L/min) was generated by a CS-55 Stimulus Controller (Syntech). Flow for stimulus and balance were set at 1 L/min. Stimulus duration was set a 1 s. There was a minimal interval of 1 min between stimuli.

[6] = test system: ACP female antennae; test: Electroantennogram (EAG) responses of ACP female antennae to acids; set-up: species or system Diaphorina citri; settings: source dose 10^−1
Protocol: as §4

[7] = test system: 7-day-old virgin D. citri females; settings: acetic acid 0.01 μL/μL hexane, 100 μL
From the text: (§5) An air-flow olfactometer, also known as “4-arm olfactometer” or “4-way olfactometer” was constructed^29 (30.0×30.0×2.5 cm in length, width and height, respectively) with acrylic. A constant, charcoal-filtered humidified airflow 0.1 L/min was connected to each odor source, and all airflows converged through individual PTFE tubes to the center of the acrylic arena. Yellow fields were made by adding a yellow laser jet printed-paper below the bottom of the arena with the following color spaces: lightness (84.8±0.04), chroma (98.7±0.40), and hue angle (95.7±0.02) using a colorimeter Minolta CR400 (Konica Minolta Co., Osaka, Japan).^34 Two of the four possible arms received volatiles from acetic acid 0.01 μL/μL hexane (100 μL), whereas the other two remaining received hexane. The psyllids (virgin 7-day-old males or females) were released on the center of the arena. An olfactometer test consisted of the release of a single D. citri and the observation (from 15:00 to 18:00). As a criterion for data collection from each insect, five minutes were allowed for response (first choice). In case of response, 10 minutes were allowed to observe the time spent in each of the four odor fields.
(§6) Statistical analyses. All statistical analyses were done with Prism 7 (GrapPad, La Jolla, Calif.). Each pair of a test and a control in indoor behavioral measurements using an Y-olfactometer or 4-way olfactometer, as well in field tests comparing only a single treatment and a control, was compared by using two-tailed, Wilcoxon matched-pairs signed rank test. Field tests with multiple comparison (different doses) were analyzed by ANOVA. Capture data were first transformed into log (x+1) and them means were analyzed by Dunnett's test as well as Tukey's test (P<0.05) by comparing the mean of each column with the mean of the control or with the mean of every other group, respectively.

[8] = test system: 7-day-old virgin D. citri males; settings: acetic acid 0.01 μL/μL hexane, 100 μL
From the text: as §5, §6

[9] = test system: 7-day-old virgin D. citri females; settings: acetic acid 0.01 μL/μL hexane, 100 μL; remark: listed apart in the source
Protocol: as §1, §2

[10] = test system: olfactory receptor neurons in ACP antennae; settings: reported in reference 28; cited from earlier work
[11] = yellow sticky traps baited with 0.1 μg
[12] = yellow sticky traps baited with 1 μg
[13] = yellow sticky traps baited with 10 μg

## CCCCCCCCCCCCCCCCCCCCCCCCOC(C)=O [24Ac, tetracosyl acetate]
[1]; 0.1 to 100 μg as odor source, P=0.2031-0.9999
  Preference of virgin males for treatment vs control in olfactometer: did not show any significant preference
[2]; 1 μg per trap, after 42 days
  Lure activity after 42 days: lost activity
[2]; 1 μg per trap, at 35 and 42 days
  Captures in baited traps vs control traps: significantly more males were captured
[2]; 1, 10 and 100 μg per trap, first weeks of the experiments
  Captures in baited traps vs control traps: not significantly different
[2]; 1.0, 10 and 100 μg, 35 and 42 days after onset
  Captures in baited traps vs control traps: a significant difference was observed; also recorded: significantly higher than captures in control traps
[3]; aged lures, after 3 weeks in field
  Lure activity: lost all activity
[3]; lures aged for 35 days, first week in field
  Males collected vs control traps: collected significantly more males than control traps
[4]
  Degradation of lure: volatiles detected by SPME: small amounts of acetic acid in aged but not in new lures

## CCCCCCCCCCCCCCCCCCCCCCCCO [240H, lignocerol, reference compound]
[2]; doses from 0.1 to 100 μg, each week, Dunnett P=0.2770-0.9999, n=4 per dose per week
  Captures in treatment vs control traps: did not find significant differences

## CC(=O)O [acetic acid]
[5]; source dose 10^−1
  EAG response: 2.70±0.36 mV
[5]; source dose 10^−2
  EAG response: 1.73±0.37 mV
[5]; very low dose 10^−3
  EAG response: 0.44±0.21 mV
[6]
  EAG response: 3.22±0.94 mV
[1]; acetic acid 0.01 μL/μL hexane, 100 μL
  Male attraction to treatment side vs control side of Y-olfactometer: significantly more attracted
[7]
  Female choice between treatment and control sides of 4-way olfactometer: did not distinguish
  Time spent by females on treatment vs control sides of 4-way olfactometer: not significantly different
[8]
  Time spent by males in treatment vs control fields of 4-way olfactometer: spent significantly more time
[8]; first choice
  Male preference for treatment fields vs control sides in 4-way olfactometer: highly significant
[9]
  Female response to baited arm vs control side of Y-olfactometer: did not differ significantly
[2]; traps baited with 1 ug
  Captures vs control traps, preliminary field experiments: captured significantly more ACP adults than control traps
[2]; traps baited with 1 μg
  Males caught: 2.48±0.25 males per trap per day
[2]; traps baited with 10 μg
  Males caught: 3.08±0.33 males per trap per day
[2]; traps baited with 100 μg
  Males caught: 4.23±0.35 males per trap per day
[2]; [11]
  ACP adults captured: 7.42±0.35 D. citri per trap per week
[2]; [12]
  ACP adults captured: 14.77±0.54 D. citri per trap per week
[2]; [13]
  ACP adults captured: 9.52±0.50 D. citri per trap per week
[10]
  Effect on responses from olfactory receptor neurons: inhibit responses

## CCCC(=O)O [butyric acid]
[5]; source dose 10^−1
  EAG response: 0.52±0.36 mV

## O=CO [formic acid]
[5]; source dose 10^−1
  EAG response: 1.60±0.63 mV
[5]; source dose 10^−2
  EAG response: 0.42±0.37 mV
[6]
  EAG response: 1.86±0.48 mV
[2]; [11]
  ACP adults captured: 2.59±0.30 D. citri per trap per week
[2]; [12]
  ACP adults captured: 9.17±0.36 D. citri per trap per week
[2]; [13]
  ACP adults captured: 7.14±0.34 D. citri per trap per week

## CCCCCC(=O)O [hexanoic acid, reference compound]
[5]; source dose 10^−1
  EAG response: no response

## CCC(=O)O [propionic acid]
[5]; source dose 10^−1
  EAG response: 2.22±0.29 mV
[5]; source dose 10^−2
  EAG response: 1.13±0.47 mV
[6]
  EAG response: 2.90±1.09 mV
[2]; yellow sticky traps baited with 0.01 μg
  ACP adults captured: 9.52±0.52 D. citri per trap per week
[2]; [11]
  ACP adults captured: 18.27±0.52 D. citri per trap per week
[2]; [12]
  ACP adults captured: 13.79±0.53 D. citri per trap per week
[10]
  Effect on responses from olfactory receptor neurons: inhibit responses

## CCCCC(=O)O [valeric acid]
[5]; source dose 10^−1
  EAG response: 0.24±0.03 mV
